Values of other authors, collected in patent EP0513922B1, “Coating for foods and agricultural products to prevent the growth of moulds” (GIST-BROCADES N.V., priority 1991, dated 1992).

Assays:
[1] = in aqueous systems, depending of the presence of other substances
[2] = system: fungus growth; conditions: to be effective against fungus growth

solubility of natamycin [1]: 30 - 50 ppm
Compound: C[C@@H]1C/C=C/C=C/C=C/C=C/[C@H](O[C@@H]2O[C@H](C)[C@@H](O)[C@H](N)[C@@H]2O)C[C@@H]2O[C@](O)(C[C@@H](O)C[C@H]3O[C@@H]3/C=C/C(=O)O1)C[C@H](O)[C@H]2C(=O)O [natamycin]
minimal inhibitory concentration [2]: less than 10 ppm
